Entries after “also recorded” stand apart in the source; their conditions may differ. Each block holds one substance with its values, some of them ahead of it.
Legend:
ERK1/2 = ERK1/2 MAP kinase activation (phosphorylation) in primary osteoblasts; assay type: cell-based, mice; details: 5 min, 100 nM PTH(1-34) or 1 μM PTH-βarr; for ERK1/2 activation: β-arrestin 2−/− POB; for ERK1/2 phosphorylation: WT POB
Method: FIG. 2 PTH-βarr stimulates β-arrestin mediated ERK1/2 activation. PTH-βarr stimulated ERK1/2 activation, was assessed in POBs isolated from β-arrestin 2−/− and WT C57BL/6 mice. POBs were treated with 100 nM PTH(1-34) (PTH) or 1 μM PTH-βarr for 5 min. […] The effect of PTH-barr stimulation on ERK1/2 activation in the WT obs was absent in the β-arrestin 2−/− obs. Values presented are the fold ERK1/2 phosphorylation over non-stimulated controls. Data represent the mean±SEM from four independent experiments. (**, P<0.01 compared with the non-stimulated WT POBs; ††, P<0.01 compared with the non-stimulated β-arrestin 2−/− POBs).
PTH(1-34) and PTH-βarr stimulated ERK1/2 MAP kinase activation was assessed in WT and β-arrestin 2−/− POB after treatment for 5 min with 100 nM PTH(1-34) or 1 μM PTH-βarr (FIG. 1b).

[1] = system: WT and β-arrestin 2−/− mice; experiment: Quantitative microCT of the lumbar spine (trabecular bone); assay type: in vivo; details: for percent increase in Tb bone density: vs vehicle, 8 weeks
Description: FIG. 4. β-arrestin 2 dependent signaling contributes to increases in trabecular bone but not cortical bone. Quantitative microCT of the lumbar spine was used to determine the effect vehicle, PTH (1-34) (PTH), or PTH-barr on (a) trabecular bone (Tb) density (BV/TV), (b) Tb thickness and (c) Tb number in WT and β-arrestin 2−/− mice after 8 wks of treatment. PTH and PTH-βarr increased tb density, tb thickness, and tb number in WT treated animals. The effects of PTH-βarr were absent in the β-arrestin −/− animals consistant with a b-arrestin mediated mechanism of anabolic bone formation. Data represent the mean±SEM of at least 7 independent mouse measurements. (***, P<0.001; **, P<0.01; *, P<0.05 compared with vehicle treated WT mice; if, P<0.01; t, P<0.05 compared with vehicle treated β-arrestin 2−/− mice).
Quantitative microCT (qCT) measurements of the lumbar spine were acquired from WT and β-arrestin 2−/− mice after 8 weeks of treatment with vehicle, PTH(1-34), or PTH-βarr. There was no significant difference in the overall trabecular bone density (BV/TV) between vehicle treated WT and β-arrestin 2−/− mice (FIG. 3A). […] These differences in trabecular bone architecture in sham treated animals reflect two potential contributing processes 1) the loss of β-arrestin mediated signaling and 2) the exaggeration of Gs signaling due to the loss of β-arrestin desensitization.

[2] = system: WT and β-arrestin 2−/− mice; experiment: Quantitative histomorphometry of lumbar spine sections; assay type: in vivo; details: for osteoblast surface vs vehicle / osteoclast surface (osteoclast recruitment) / osteoid surface vs vehicle: WT mice, 8 wks, lumbar spine sections
Description: Dynamic histomorphometric data were consistent with the qCT of trabecular bone morphology. […] As expected there was an increase in osteoclast surface in the PTH (1-34) treated animals.

[3] = system: WT and β-arrestin 2−/− mice; experiment: Serum osteocalcin, marker of bone formation; assay type: in vivo; details: 4 weeks of treatment
Method: FIG. 5. PTH-βarr increases serum osteocalcin and has no effect on urine Deoxypyridinoline (DPD) excretion. (a) Serum osteocalcin, a biochemical marker of bone formation was measured in WT and β-arrestin 2−/− mice after 4 weeks of treatment with vehicle, PTH (1-34) (PTH) or PTH-βarr. […] There was no increase in serum osteocalcin in the arrestin 2−/− mice treated with PTH-βarr compared to placebo. […] (b) 24 hour urine DPD, a marker of bone degradation and bone resorption, was also measured in WT and β-arrestin 2−/− mice after 4 weeks of treatment with vehicle, PTH or PTH-βarr. […] Data represent the mean±SEM of at least 7 independent mouse measurements. (***, P<0.001; *, P<0.05; compared with vehicle treated WT mice; †††, P<0.001; ††, P<0.01 compared with vehicle treated β-arrestin 2−/− mice).
To delineate the cellular mechanisms contributing to the metabolic effects of PTH(1-34) and PTH-βarr administration in WT and β-arrestin 2−/− mice, serum and urine markers of bone turnover were assessed.

[4] = system: osteocalcin, RANKL and OPG gene expression; experiment: Calvarial gene expression of bone regulatory proteins by quantitative RT-PCR; assay type: in vivo, mice
Method: FIG. 6 Distinct β-arrestin- and G protein-dependent Pathways Contribute to PTH Receptor-stimulated Gene Expression of Bone Regulatory Proteins. To determine the contributions of β-arrestin mediated signaling, to PTH receptor stimulated transcription of bone regulatory proteins, RNA was isolated from the calvaria of WT and β-arrestin 2−/− mice treated with vehicle, PTH(1-34) (PTH), or PTH-βarr. Gene expression was analyzed by quantitative RT-PCR. (a) Consistent with bone formation PTH and PTH-βarr increased osteocalcin expression in WT calvaria. […] (b) and (c). […] Data represent the mean±SEM from six independent experiments. (***, P<0.001; **, P<0.01; *, P<0.05; compared with vehicle treated WT mice; †††, P<0.001; †, P<0.05 compared with vehicle treated β-arrestin 2−/− mice).
To determine the contribution of β-arrestin mediated signaling to PTH1R-stimulated transcription of bone regulatory proteins, calvarial RNA was isolated from WT and β-arrestin 2−/− mice treated with PTH(1-34), PTH-βarr or vehicle. Gene expression for osteocalcin, as well as receptor activator of nuclear factor-KB ligand (RANKL) and osteoprotegrin (OPG), which activate and inhibit osteoclastic bone resorption respectively, was analyzed by quantitative RTPCR (FIG. 6 A-C).

[5] = WT mice, 8 weeks of daily treatment
[6] = β-arrestin 2−/− mice, 8 weeks of daily treatment
[7] = WT mice, 8 weeks of daily treatment, listed as PTH

ERK1/2 activation (ERK1/2): failed to activate ERK1/2 | ERK1/2 activation (ERK1/2; listed as PTH-barr): absent
Substance: (D-Trp12, Tyr34)-PTH(7-34) [PTH-βarr]
lumbar spine trabecular bone density (BV/TV) vs vehicle [1, 5]: increased; also recorded: significant increase | trabecular number vs vehicle [1, 5]: increased; also recorded: significant increases | trabecular thickness vs vehicle [1, 5]: increased; also recorded: significant increases | trabecular number vs vehicle [1, 6]: absent | osteoblast surface vs vehicle [2]: increased | osteoclast surface (osteoclast recruitment) [2]: no effect | osteoid surface vs vehicle [2]: increased | serum osteocalcin vs vehicle ([3]; WT mice): significantly increased | serum osteocalcin vs vehicle ([3]; β-arrestin 2−/− mice): no increase; also recorded: no significant change | OPG mRNA expression vs vehicle ([4]; WT mice, calvaria): did not affect | RANKL mRNA expression vs vehicle ([4]; WT mice, calvaria): did not affect | osteocalcin mRNA expression vs vehicle ([4]; WT mice, calvaria): increases | OPG mRNA expression vs vehicle ([4]; WT mice; calvaria; Tyr34)-PTH(7-34)): significantly increases | OPG mRNA expression vs vehicle ([4]; β-arrestin 2−/− mice, calvaria): Neither PTH nor PTH-βarr treatment had a significant effect | RANKL mRNA expression vs vehicle ([4]; β-arrestin 2−/− mice, calvaria): Neither PTH nor PTH-βarr treatment had a significant effect | osteocalcin mRNA expression vs vehicle ([4]; β-arrestin 2−/− mice, calvaria): decrease

Substance: PTH(1-34) [reference compound]
ERK1/2 phosphorylation (ERK1/2): approximately 3 fold over basal | ERK1/2 phosphorylation (ERK1/2; listed as PTH): robustly activated | ERK1/2 activation (ERK1/2): responded to PTH(1-34) much as WT POB | lumbar spine trabecular bone density (BV/TV) vs vehicle [1, 5]: significantly increased | trabecular number vs vehicle [1, 5]: significant increases | trabecular thickness vs vehicle [1, 5]: significant increases | lumbar spine trabecular bone density (BV/TV) vs vehicle [1, 7]: increased | trabecular number vs vehicle [1, 7]: increased | trabecular thickness vs vehicle [1, 7]: increased | percent increase in Tb bone density ([1]; WT mice): 38% | trabecular bone density (BV/TV) vs vehicle [1, 6]: net increase | trabecular thickness vs vehicle [1, 6]: significant increases | percent increase in Tb bone density ([1]; β-arrestin 2−/− mice): 17% | osteoblast surface vs vehicle [2]: increased | osteoclast surface (osteoclast recruitment) [2]: increase | osteoid surface vs vehicle [2]: increased | osteoclast formation ([2]; in the absence of β-arrestin 2): accelerates | serum osteocalcin vs vehicle ([3]; WT mice): significantly increased | serum osteocalcin vs vehicle ([3]; WT mice, listed as PTH): significantly increase | serum osteocalcin vs vehicle ([3]; β-arrestin 2−/− mice): increased | OPG mRNA expression vs vehicle ([4]; WT mice, calvaria): increases | RANKL mRNA expression vs vehicle ([4]; WT mice, calvaria): increases | osteocalcin mRNA expression vs vehicle ([4]; WT mice, calvaria): increases | osteocalcin mRNA expression vs vehicle ([4]; WT mice, calvaria, listed as PTH): increased | OPG mRNA expression vs vehicle ([4]; β-arrestin 2−/− mice, calvaria): Neither PTH nor PTH-βarr treatment had a significant effect | RANKL mRNA expression vs vehicle ([4]; β-arrestin 2−/− mice, calvaria): Neither PTH nor PTH-βarr treatment had a significant effect | osteocalcin mRNA expression vs vehicle ([4]; β-arrestin 2−/− mice, calvaria, listed as PTH): significant increase; also recorded: significantly increased
